Measurements as given in US20250129094A1, “NEW QUINOLINE DERIVATIVES” (ELANCO ANIMAL HEALTH GMBH, priority 2021, published 2025).
Like-named read-outs stand apart in the source and are kept apart here.

Tests used:
[1] = molecular target: D. immitis Slo-1 (Dirofilaria immitis, UniProt I0DFK5); test: D. immitis Slo-1 - action at a recombinant D. immitis cell line (membrane potential, FLIPR); format: cell-based
[2] = tested on: H. contortus and/or T. colubriformis; test: In vivo assay 3: gastro intestinal nematodes H. contortus and T. colubriformis in jirds; details: jirds (Meriones unguiculatus), at ≤1.0 mg/kg intraperitoneal, treated once on Day 6 after infection
Experimental: In Vivo Assay 3: Gastro Intestinal Nematodes of H. contortus (Haemonchus contortus) and T. colubriformis (Trichostrongylus colubriformis)
Jirds (Meriones unguiculatus), immunosuppressed by administration of rodent feed containing hydrocortisone 21-acetate, were experimentally infected with third instar larvae each of T. colubriformis and H. contortus by oral gavage and were treated once orally or intraperitoneally with the formulated test compound on Day 6 after infection. Three days after treatment, jirds were euthanized and dissected to recover H. contortus from stomach and T. colubriformis from the small intestine. Efficacy is expressed as a % reduction in worm numbers in comparison with a placebo treated group, using the Abbot's formula.

[3] = tested on: A. viteae; details: jirds (Meriones unguiculatus), at ≤25.0 mg/kg per oral, treated once, necropsy 12 weeks after infection
Text: Jirds (Meriones unguiculatus), experimentally infected with infective A. viteae larvae via subcutaneous injection were subsequently treated once with the formulated test compound by oral gavage or intraperitoneally. At necropsy 12 weeks after infection, efficacy was expressed as a % reduction in worm numbers in comparison with the placebo treated group, using the Abbot's formula.

Sequence of D. immitis Slo-1 (I0DFK5 1-1119): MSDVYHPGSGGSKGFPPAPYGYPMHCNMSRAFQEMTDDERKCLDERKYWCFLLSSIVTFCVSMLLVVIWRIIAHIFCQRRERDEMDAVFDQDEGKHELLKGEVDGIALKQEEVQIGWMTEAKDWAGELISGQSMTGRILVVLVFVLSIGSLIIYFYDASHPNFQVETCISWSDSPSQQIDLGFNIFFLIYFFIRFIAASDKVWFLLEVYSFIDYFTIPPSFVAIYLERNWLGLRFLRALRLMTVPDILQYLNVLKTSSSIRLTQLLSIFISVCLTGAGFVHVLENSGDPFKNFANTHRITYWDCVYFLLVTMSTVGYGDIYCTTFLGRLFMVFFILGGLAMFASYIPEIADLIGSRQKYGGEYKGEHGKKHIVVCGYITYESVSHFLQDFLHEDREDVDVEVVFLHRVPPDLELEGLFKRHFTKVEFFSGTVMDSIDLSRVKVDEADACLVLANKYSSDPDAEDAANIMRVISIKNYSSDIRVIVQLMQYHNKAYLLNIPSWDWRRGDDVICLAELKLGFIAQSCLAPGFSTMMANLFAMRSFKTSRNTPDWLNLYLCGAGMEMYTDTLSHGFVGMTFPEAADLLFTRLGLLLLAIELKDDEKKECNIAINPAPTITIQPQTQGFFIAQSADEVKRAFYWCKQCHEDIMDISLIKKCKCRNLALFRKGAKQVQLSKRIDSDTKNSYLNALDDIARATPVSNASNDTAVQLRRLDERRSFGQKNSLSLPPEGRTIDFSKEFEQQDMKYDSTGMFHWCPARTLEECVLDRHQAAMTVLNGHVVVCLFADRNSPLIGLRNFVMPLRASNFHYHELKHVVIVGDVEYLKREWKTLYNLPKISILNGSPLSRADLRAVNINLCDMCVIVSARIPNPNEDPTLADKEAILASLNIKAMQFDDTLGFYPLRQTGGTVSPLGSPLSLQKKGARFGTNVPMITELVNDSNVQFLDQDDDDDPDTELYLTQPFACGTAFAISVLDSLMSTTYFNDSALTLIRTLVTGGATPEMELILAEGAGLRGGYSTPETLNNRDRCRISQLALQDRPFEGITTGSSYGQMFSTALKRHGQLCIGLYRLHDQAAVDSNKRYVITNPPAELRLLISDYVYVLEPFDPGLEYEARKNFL

SMILES	EC50 [1] [µM]	activity (% reduction in worm numbers) [2] [%]	activity (% reduction in worm numbers) [3] [%]	EC50 ([1]; read-out: pE50, stable CHO cell line expressing D. immitis Slo-1, voltage sensitive dye, upper limit in μM) [µM]
O=C(N[C@H]1CCOc2ccccc21)c1cnc2c(-c3cc(F)cc(F)c3F)c(F)ccc2c1C1CCOC1 (stereo partly drawn) [Example 7, N-[(4S)-3,4-dihydro-2H-1-benzopyran-4-yl]-7-fluoro-4-(oxolanyl)-8-(2,3,5-trifluorophenyl) quinoline-3-carboxamide]	0.001 to 0.01			
N=S1(=O)CC(c2c(C(=O)N[C@H]3CCOc4ccccc43)cnc3c(-c4cc(F)cc(F)c4F)c(F)ccc23)C1 (stereo partly drawn) [Example 10, N-[(4S)-3,4-dihydro-2H-chromen-4-yl]-7-fluoro-4-(1-imino-1-oxido-1lambda^4-thietan-3-yl)-8-(2,3,5-trifluorophenyl) quinoline-3-carboxamide]	0.001 to 0.01	100		
O=C(N[C@H]1CCOc2ccccc21)c1cnc2c(-c3cc(Cl)cc(Cl)c3)c(F)ccc2c1N1CCOC2CC21 (stereo partly drawn) [Example 13, 4-(2-oxa-5-azabicyclo[4.1.0]heptan-5-yl)-N—((S)-chroman-4-yl)-8-(3,5-dichlorophenyl)-7-fluoroquinoline-3-carboxamide]	0.001 to 0.01			
O=C1CN(c2c(C(=O)N[C@H]3CCOc4ccccc43)cnc3c(-c4cc(F)cc(F)c4F)c(F)ccc23)CCN1 [Example 16, N—((S)-chroman-4-yl)-7-fluoro-4-(3-oxopiperazin-1-yl)-8-(2,3,5-trifluorophenyl) quinoline-3-carboxamide]		100		
O=C(N[C@H]1CCOc2ccccc21)c1cnc2c(-c3cc(F)cc(F)c3F)c(F)ccc2c1[C@@H]1CCOC1 [Example 8, N-[(4S)-3,4-dihydro-2H-1-benzopyran-4-yl]-7-fluoro-4-(oxolan-(3S)-yl)-8-(2,3,5-trifluorophenyl) quinoline-3-carboxamide]	0.001 to 0.01	100		
O=C(N[C@H]1CCOc2ccccc21)c1cnc2c(-c3cc(F)cc(F)c3F)c(F)ccc2c1C1C[S+]([O-])C1 (single isomer, unassigned) [Example 5]		100		
O=C(N[C@H]1CCOc2ccccc21)c1cnc2c(-c3cc(F)cc(F)c3F)c(F)ccc2c1[C@H]1CCOC1 [Example 9, N-[(4S)-3,4-dihydro-2H-1-benzopyran-4-yl]-7-fluoro-4-(oxolan-(3R)-yl)-8-(2,3,5-trifluorophenyl) quinoline-3-carboxamide]	0.001 to 0.01	100		
O=C1CC(c2c(C(=O)N[C@H]3CCOc4ccccc43)cnc3c(-c4cc(F)cc(F)c4F)c(F)ccc23)C1 [Example 1, N-[(4S)-3,4-dihydro-2H-chromen-4-yl]-7-fluoro-4-(3-oxocyclobutyl)-8-(2,3,5-trifluorophenyl) quinoline-3-carboxamide]	0.001 to 0.01	100	100	
O=C(N[C@H]1CCOc2ccccc21)c1cnc2c(-c3cc(F)cc(F)c3F)c(F)ccc2c1[C@H]1C[C@H](F)C1 [Example 15, N—((S)-chroman-4-yl)-7-fluoro-4-((1R,3S)-3-fluorocyclobutyl)-8-(2,3,5-trifluorophenyl) quinoline-3-carboxamide]	0.001 to 0.01	100		
O=C(N[C@H]1CCOc2ccccc21)c1cnc2c(-c3cc(F)cc(F)c3F)c(F)ccc2c1C1C[S+]([O-])C1 (single isomer, unassigned) [Example 6]				0.1 to 1
O=C(N[C@H]1CCOc2ccccc21)c1cnc2c(-c3cc(F)cc(F)c3F)c(F)ccc2c1C1CS(=O)(=O)C1 [Example 3, N-[(4S)-3,4-dihydro-2H-chromen-4-yl]-4-(1,1-dioxidothietan-3-yl)-7-fluoro-8-(2,3,5-trifluorophenyl) quinoline-3-carboxamide]	0.01 to 0.1			
